Assay results reported in US5763435A, “Sulfate conjugates of ursodeoxycholic acid, and their beneficial use in inflammatory disorders” (priority 1995, dated 1998).
“Also recorded” adds a separate entry of the source.

How the values were obtained:
[1] = system: Principal Bile Acids in Liver; assay: Bile acid composition of liver tissue after oral administration (GC-MS); assay type: in vivo, Sprague-Dawley rats
Procedure: Male Sprague-Dawley rats (Harlan Sprague-Dawley, Inc., Indianapolis, Ind.), weighing 210-290 g, were maintained on a 12-hour light-dark cycle and fed standard laboratory chow ad libitum for 3 days. The animals were then transferred to metabolic cages in which they were housed individually and fed the same diet. UDCA, UDCA 3-sulfate, UDCA 7-sulfate, and UDCA 3,7-disulfate were administered by gavage at a dose of 250 mg/day for 4 consecutive days. Each group comprised 3-6 rats. Body weights of the animals were measured each day. On day 5, the animals were killed by exsanguination under ether anesthesia. Plasma was collected and frozen at -20° C. The liver was removed, rinsed in normal saline, and flash-frozen in liquid nitrogen. Urine and feces were collected every 24 hours and frozen at -20° C. All animals received humane care in compliance with the "Guide for the Care and Use of Laboratory Animals" prepared by the National Academy of Sciences (National Institutes of Health publication no. 86-23, revised in 1985).
Samples of liver (100 mg) were ground to a fine paste, and bile acids were extracted by reflux and passage through a column of Lipidex 1000 as described above for intestinal contents and feces. Group separation of bile acids, according to their mode of conjugation was achieved by lipophilic anion-exchange chromatography. Extracts from each animal were pooled, and bile acids and their conjugates were separated using Lipidex-DEAP and stepwise elution of the gel bed with the following buffers: 0.1 mol/L acetic acid in 72% ethanol (unconjugated bile acids); 0.3 mol/L acetic acid in 72% ethanol, pH 5.0 (glycine conjugates); 0.15 mol/L acetic acid in 72% ethanol, pH 6.5 (taurine conjugates); and 0.3 mol/L acetic acid in 72% ethanol, pH 9.6 (sulfate conjugates). After evaporation of the buffers, sulfated bile acids were solvolyzed, whereas amidated conjugates were hydrolyzed with 50 U of cholylglycine hydrolase (Sigma Chemical Co.) in 2.5 mL of 0.2 mol/L phosphate buffer, pH 5.6, at 37° C. overnight. The resulting unconjugated bile acids were isolated on Lipidex-DEAP, and the methyl ester-trimethylsilyl ether derivatives were prepared as described above.
GC-MS analysis was performed using a Finnigan 4635 mass spectrometer (Finnigan Inc., San Jose, Calif.) that housed an identical gas chromatography column operated under the same conditions. Electron ionization (70 eV) mass spectra were recorded over the mass range of 50-800 daltons by repetitive scanning of the eluting components. Identification of bile acids was made on the basis of the gas chromatography retention index relative to a homologous series of n-alkanes, referred to as the methylene unit value, and the mass spectrum compared with authentic standards. Quantification of bile acids was achieved using gas chromatography by comparing the peak height response of the individual bile acids with the peak height response obtained from the internal standard.
Data are expressed as mean±SEM or as mean values of all animals when extracts were pooled before analysis. Results from different groups were compared using paired and unpaired two-tailed Student's t-test. P values of <0.05 were considered statistically significant.

serum liver enzymes = conditions: oral administration; cited from earlier work
[2] = Plasma UDCA concentration after oral administration; assay type: in vivo, Sprague-Dawley rats; conditions: read-out: Unconjugated plasma UDCA concentration
Procedure: Male Sprague-Dawley rats (Harlan Sprague-Dawley, Inc., Indianapolis, Ind.), weighing 210-290 g, were maintained on a 12-hour light-dark cycle and fed standard laboratory chow ad libitum for 3 days. The animals were then transferred to metabolic cages in which they were housed individually and fed the same diet. UDCA, UDCA 3-sulfate, UDCA 7-sulfate, and UDCA 3,7-disulfate were administered by gavage at a dose of 250 mg/day for 4 consecutive days. Each group comprised 3-6 rats. Body weights of the animals were measured each day. On day 5, the animals were killed by exsanguination under ether anesthesia. Plasma was collected and frozen at -20° C. […]
In each group, urine from all animals was pooled on the individual days of collection. […] After the addition of nordeoxycholic acid (1 μg), bile acids were quantitatively extracted from portions of urine (3 mL) and plasma (1 mL) using Bond-Elut C18 cartridges. […]
GC-MS analysis was performed using a Finnigan 4635 mass spectrometer (Finnigan Inc., San Jose, Calif.) that housed an identical gas chromatography column operated under the same conditions. Electron ionization (70 eV) mass spectra were recorded over the mass range of 50-800 daltons by repetitive scanning of the eluting components. […]
Data are expressed as mean±SEM or as mean values of all animals when extracts were pooled before analysis. […]

[3] = system: chemically induced colon cancer; conditions: in vivo; cited from earlier work

SMILES	Chenodeoxycholic acid concentration in liver ([1]; oral gavage 250 mg/day, 4 days) [nmol/g]	Chenodeoxycholic acid percent of hepatic bile acids ([1]; oral gavage 250 mg/day, 4 days) [%]	Cholic acid concentration in liver ([1]; oral gavage 250 mg/day, 4 days) [nmol/g]	Cholic acid percent of hepatic bile acids ([1]; oral gavage 250 mg/day, 4 days) [%]	Deoxycholic acid concentration in liver ([1]; oral gavage 250 mg/day, 4 days) [nmol/g]	Deoxycholic acid percent of hepatic bile acids ([1]; oral gavage 250 mg/day, 4 days) [%]	Lithocholic acid concentration in liver ([1]; oral gavage 250 mg/day, 4 days) [nmol/g]	Lithocholic acid percent of hepatic bile acids ([1]; oral gavage 250 mg/day, 4 days) [%]	Total bile acid concentration in liver ([1]; oral gavage 250 mg/day, 4 days) [nmol/g]	UDCA percent of hepatic bile acids ([1]; oral gavage 250 mg/day, 4 days) [%]	Δ^22-UDCA concentration in liver ([1]; oral gavage 250 mg/day, 4 days) [nmol/g]	Δ^22-UDCA percent of hepatic bile acids ([1]; oral gavage 250 mg/day, 4 days) [%]	Δ^22-β-Muricholic acid concentration in liver ([1]; oral gavage 250 mg/day, 4 days) [nmol/g]	Δ^22-β-Muricholic acid percent of hepatic bile acids ([1]; oral gavage 250 mg/day, 4 days) [%]	Δ^22-ω-Muricholic acid concentration in liver ([1]; oral gavage 250 mg/day, 4 days) [nmol/g]	Δ^22-ω-Muricholic acid percent of hepatic bile acids ([1]; oral gavage 250 mg/day, 4 days) [%]	α-Muricholic acid concentration in liver ([1]; oral gavage 250 mg/day, 4 days) [nmol/g]	α-Muricholic acid percent of hepatic bile acids ([1]; oral gavage 250 mg/day, 4 days) [%]	β-Muricholic acid concentration in liver ([1]; oral gavage 250 mg/day, 4 days) [nmol/g]	β-Muricholic acid percent of hepatic bile acids ([1]; oral gavage 250 mg/day, 4 days) [%]	also measured
C[C@H](CCC(=O)O)[C@H]1CC[C@H]2[C@@H]3[C@@H](O)C[C@@H]4C[C@H](OS(=O)(=O)O)CC[C@]4(C)[C@H]3CC[C@]12C [UDCA-3S, ursodeoxycholic acid 3-sulfate]	9.2	2.5	86.6	23.9	52.6	14.5	3.2	0.9	361.7	15.6	31.3	8.6	36.3	10.0	6.3	1.7	6.0	1.6	65.4	18.1	ω-Muricholic acid concentration in liver ([1]; oral gavage 250 mg/day, 4 days): 8.1 nmol/g; ω-Muricholic acid percent of hepatic bile acids ([1]; oral gavage 250 mg/day, 4 days): 2.2%; Hepatic UDCA concentration change (in words) ([1]; oral, vs control): increased concentrations and proportions of liver tissue UDCA; Conjugation of UDCA in liver tissue ([1]; oral, listed as C-3 sulfate): biotransformed by conjugation, mainly with taurine; Conjugation of UDCA in liver tissue ([1]; oral, listed as UDCA 3-sulfate): significant desulfation and amidation
C[C@H](CCC(=O)O)[C@H]1CC[C@H]2[C@@H]3[C@@H](OS(=O)(=O)O)C[C@@H]4C[C@H](O)CC[C@]4(C)[C@H]3CC[C@]12C [UDCA-7S, ursodeoxycholic acid 7-sulfate]	6.4	1.9	186.1	56.0	14.9	4.5	3.2	1.0	332.3	1.8	8.7	2.6	59.8	18.0	6.6	2.0	0.4	0.1	36.1	10.8	ω-Muricholic acid concentration in liver ([1]; oral gavage 250 mg/day, 4 days): 4.0 nmol/g; ω-Muricholic acid percent of hepatic bile acids ([1]; oral gavage 250 mg/day, 4 days): 1.2%; Hepatic UDCA concentration change (in words) ([1]; oral, vs control): low compared with the control animals
C[C@H](CCC(=O)O)[C@H]1CC[C@H]2[C@@H]3[C@@H](O)C[C@@H]4C[C@H](O)CC[C@]4(C)[C@H]3CC[C@]12C [UDCA, 3 alpha, 7 beta-dihydroxy-5 beta-cholan-24oic acid, reference compound]	12.4	3.7	42.3	12.7	22.5	6.8	8.0	2.4	331.8	30.0	37.4	11.3	20.9	6.3	4.8	1.4	16.1	4.8	60.6	18.3	Serum liver enzymes (in words) (serum liver enzymes): significant improvement in serum liver enzymes; concentration [2]: 4.8 ± 2.2 µM; Conjugation of UDCA in liver tissue ([1]; oral): biotransformed by conjugation, mainly with taurine; also recorded: predominantly conjugated by amidation; Fold decrease of liver tissue cholic acid concentration ([1]; oral): ~4 fold; UDCA concentration in liver ([1]; oral gavage 250 mg/day, 4 days): 99.6 nmol/g; ω-Muricholic acid concentration in liver ([1]; oral gavage 250 mg/day, 4 days): 6.3 nmol/g; ω-Muricholic acid percent of hepatic bile acids ([1]; oral gavage 250 mg/day, 4 days): 1.9%; Hepatic UDCA concentration change (in words) ([1]; oral, vs control): increased concentrations and proportions of liver tissue UDCA; also recorded: increased markedly; Hepatic lithocholic acid change (in words) ([1]; oral, vs control): increased hepatic lithocholic acid concentration; Effect in colon cancer models (in words) [3]: beneficial effects
C[C@H](CCC(=O)O)[C@H]1CC[C@H]2[C@@H]3[C@@H](OS(=O)(=O)O)C[C@@H]4C[C@H](OS(=O)(=O)O)CC[C@]4(C)[C@H]3CC[C@]12C [UDCA-DS, ursodeoxycholic acid 3,7-disulfate]	0.7	0.2	163.2	57.7	17.3	6.1	2.2	0.8	282.7	1.7	5.8	2.0	23.0	8.1	4.0	1.4	6.5	2.3	50.1	17.7	ω-Muricholic acid concentration in liver ([1]; oral gavage 250 mg/day, 4 days): 5.0 nmol/g; ω-Muricholic acid percent of hepatic bile acids ([1]; oral gavage 250 mg/day, 4 days): 1.8%; Hepatic UDCA concentration change (in words) ([1]; oral, vs control): low compared with the control animals
